20 compounds from patent publication US7868204B2, “Inhibitors of histone deacetylase” (MethylGene Inc., priority 2001, dated 2011) can be followed below.

pEC50, pIC50: −log10 of the molar value. Read-outs that look alike come from different tables or passages of the source. Bounds are passed on as bounds.

The term pIC50 denotes the IC50 on a negative log10 scale, so that one unit is a factor of ten.

In experiment [1] the test system is HCT116 human colorectal carcinoma cells. Briefly: Antitumor activity in HCT116 human colorectal tumor xenograft model in vivo. Also on record: species or system BALB/c nude mice. Conditions: Mus musculus, ip, HCT 116 colorectal tumor model, read-out: % Inhibition of Tumor Growth; for inhibition in vivo at 40 mg/kg: 40 mg/kg i.p.; for inhibition in vivo at 20 mg/kg: 20 mg/kg i.p. The procedure: Eight to ten week old female BALB/c nude mice (Taconic Labs, Great Barrington, N.Y.) were injected subcutaneously in the flank area with 2×10^6 preconditioned HCT116 human colorectal carcinoma cells. Preconditioning of these cells was done by a minimum of three consecutive tumor transplantations in the same strain of nude mice. Subsequently, tumor fragments of approximately 30 mgs were excised and implanted subcutaneously in mice, in the left flank area, under Forene anesthesia (Abbott Labs, Geneve, Switzerland). When the tumors reached a mean volume of 100 mm^3, the mice were treated intravenously, subcutaneously, or intraperitoneally by daily injection, with a solution of the histone deacetylase inhibitor in an appropriate vehicle, such as PBS, DMSO/water, or Tween 80/water, at a starting dose of 10 mg/kg. The optimal dose of the HDAC inhibitor was established by dose response experiments according to standard protocols. Tumor volume was calculated every second day post infusion according to standard methods (e.g., Meyer et al., Int. J. Cancer 43: 851-856 (1989)). […] FIGS. 2-10 show the results of additional compounds tested.
On the technique in general: Xenograft models place foreign cells or tissue in a host animal.

Experiment [2] has as its target T1, cloned recombinant human HDAC-1 (Homo sapiens, UniProt Q13547).
T1 construct: made in house; host or cells: Baculovirus insect cell expression system
Briefly: Human HDAC-1 enzyme inhibition, Assay 1 ([3H]-acetylated histone substrate, scintillation counting). The format is biochemical. The settings on record: read-out: Human HDAC-1 IC50. In outline:
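Recombinant human HDAC-1 from baculovirus-infected insect cells, preincubated with compound 30 min at 4° C. before reaction. Released [3H]-acetic acid extracted with ethyl acetate and counted by scintillation. IC50 taken from dose-response curves as concentration giving half-maximal inhibition.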

In experiment [3] the test system is acetylated histone H-4 in T24 human bladder cancer cells. Briefly: Histone H4 acetylation in whole cells by immunoblots. It counts as cell-based. Conditions: 16 h. In outline: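 T24 cells were treated with HDAC inhibitors for 16 h; […] total histone protein was resolved by SDS/PAGE and immunoblotted with polyclonal anti-acetylated H4 antibody. ECL detection, with signal quantified by densitometry.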
(In western blotting, separated proteins are transferred to a membrane and probed.)

The next experiment relates to HCT116 cells. Nature of the experiment: MTT assay. The format is cell-based. The settings on record: Homo sapiens. In outline:
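Cells plated one day before dosing, then exposed to compound 72 h at 37 °C, 5% CO2. MTT at 0.5 mg/ml final for 4 h, solubilized in DMF/SDS buffer pH 4.7; OD converted to cell number from a standard growth curve.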
For orientation: Tetrazolium dyes change colour on reduction, which living cells bring about.

The target of a further experiment is HDAC-1 (Homo sapiens, UniProt Q13547). Nature of the experiment: Human HDAC-1 enzyme inhibition, Assay 2 (Boc-Lys(Ac)-AMC, Fluor-de-Lys fluorescence; compounds 604-617). The format is biochemical. Conditions: read-out: HDAC1 IC50. The procedure:
Assay 2. The following protocol was also used to assay the compounds of the invention. In the assay, the buffer used was 25 mM HEPES, pH 8.0, 137 mM NaCl, 2.7 mM […], 1 mM MgCl2 and the substrate was Boc-Lys(Ac)-AMC in a 50 mM stock solution in DMSO. The enzyme stock solution was 4.08 μg/mL in buffer. The compounds were pre-incubated (2 μl in DMSO diluted to 13 μl in buffer for transfer to assay plate) with enzyme (20 μl of 4.08 μg/ml) for 10 minutes at room temperature (35 μl pre-incubation volume). The mixture was pre-incubated for 5 minutes at room temperature. The reaction was started by bringing the temperature to 37° C. and adding […] substrate. Total reaction volume was 50 μl. […] A plate was incubated in the dark for 10 minutes at room temperature before reading (λEx=360 nm, λEm=470 nm, Cutoff filter at 435 nm). Assay 2 was used to measure HDAC activity of compounds 604-617 (Table 5). HDAC activity of the remaining compounds was measured by assay 1.

For experiment [4], the system named is acetyl-H3 in T24 human bladder cancer cells. Briefly: Histone H3 acetylation assay (anti-acetyl-H3, Amplex-Red fluorescence, normalized to Alamar Blue). The format is cell-based. The settings on record: T-24, 16 h incubation, read-out: H3 Ac t24. The procedure: T24 human bladder cancer cells growing in culture are incubated with HDAC inhibitors for 16 h. Cell viability is determined by adding 10 μl Alamar Blue (BioSource, DAL1100). Cells are washed once with PBS and fixed with methanol precooled to −20° C. for 10 min. The cells are then washed twice in PBS. The fixed cells are blocked with 50 μl of PBS+0.1% Triton X-100. Cells are probed with rabbit-anti-acetyl-H3 (Upstate #06-599) as the primary antibody and then with goat-anti-rabbit-HRP (Sigma #A-0545) as the secondary antibody. Fluorescence is read by fluorometer at Ex: 550, Em: 610, Cutoff: 590 (Auto PMT, 15 reads/well) after addition of Amplex-Red. Fluorescence signal is normalized against cell viability derived from Alamar Blue. Maximum acetylation signal of MS-275 (fluorescence unit) is measured as Emax.

[5] abbreviates: T-24, Table 5a, read-out: H4Ac (T24) EC50.
Where [6] appears, read: HCT-116, 72 h, Table 5a, HCT116 cells, 72 hours.
Where [7] appears, read: T-24, Table 5E, read-out: H4 Ac (T24) EC50.
[8] abbreviates: HCT-116, 72 h, Table 5E, HCT116 cells, 72 hours.
Where [9] appears, read: T-24, Table 5c, read-out: H4Ac (T24) EC50.
Setting [10] is: HCT-116, 72 h, Table 5c, HCT116 cells, 72 hours.

T1 sequence (Q13547 whole entry): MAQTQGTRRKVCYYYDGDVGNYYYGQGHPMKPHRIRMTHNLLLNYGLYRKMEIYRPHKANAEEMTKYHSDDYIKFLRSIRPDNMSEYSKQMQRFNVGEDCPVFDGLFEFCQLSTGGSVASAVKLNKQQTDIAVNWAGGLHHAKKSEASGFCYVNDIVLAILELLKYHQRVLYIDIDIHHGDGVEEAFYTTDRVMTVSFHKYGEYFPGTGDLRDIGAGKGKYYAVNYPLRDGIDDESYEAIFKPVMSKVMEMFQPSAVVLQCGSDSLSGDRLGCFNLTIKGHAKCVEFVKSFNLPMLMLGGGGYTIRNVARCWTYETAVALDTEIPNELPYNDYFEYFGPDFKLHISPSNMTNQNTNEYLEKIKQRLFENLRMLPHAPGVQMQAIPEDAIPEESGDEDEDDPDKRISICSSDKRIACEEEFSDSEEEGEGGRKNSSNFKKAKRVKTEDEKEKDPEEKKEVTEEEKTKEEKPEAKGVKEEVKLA
HDAC-1, sequence (Q13547 whole entry): as above

On to `Nc1nc(NCc2ccc(C(=O)Nc3ccccc3N)cc2)nc(N2CCOCC2)n1` [Cpd 9, 4-[(4-amino-6-morpholin-4-yl-[1,3,5]-triazin-2-ylamino)-methyl]-N-(2-amino-phenyl)-benzamide], for which the inhibition in vivo at 40 mg/kg in experiment [1] is 51%. The pIC50 is 5.70 in experiment [2] (Table 5a) and 6.15 with HCT116 cells (setting [6]). Moreover, the pEC50 in experiment [3] (setting [5]) is 5.30.
In the case of `Nc1nc(NCc2ccc(C(=O)Nc3ccccc3N)cc2)nc(N2CCCCC2)n1` [Cpd 15, N-(2-amino-phenyl)-4-[(4-amino-6-piperidin-1-yl [1,3,5]-triazin-2-ylamino)-methyl]-benzamide], in experiment [1], the inhibition in vivo at 40 mg/kg is 26%. In addition, the figures for the pIC50 (in experiment [2] (Table 5a); in the experiment with HCT116 cells (setting [6])) were 6.30 and 6.70, respectively. For the same compound, the pEC50 in experiment [3] (setting [5]) is 5.52.
For `Nc1nc(NCc2ccc(C(=O)Nc3ccccc3N)cc2)nc(NC2CCCC2)n1` [Cpd 16], in that order: 50%, 6.00, 6.40 and 6.00.
In the case of `COc1ccc(CNc2ccc3cc(C(=O)Nc4ccccc4N)ccc3n2)cc1` [Cpd 87], in experiment [1], the inhibition in vivo at 40 mg/kg is 30%. Further, the pIC50 in experiment [2] (Table 5E) is 5.70; in the experiment with HCT116 cells (setting [8]) it was 6.00. Further, the pEC50 in experiment [3] (setting [7]) was 5.30.
Consider `Nc1ccccc1NC(=O)/C=C/c1ccc(NCc2cccc(OC(F)(F)F)c2)nc1` [Cpd 98, N-(2-aminophenyl)-3-[6-(3-trifluoromethoxy-benzylamino)-pyridin-3-yl]-acrylamide], for which the inhibition in vivo at 20 mg/kg in experiment [1] is 52%. Moreover, the pIC50 in experiment [2] (Table 5c) was 6.40; in the experiment on HCT116 cells (setting [10]) it was 5.70. For the same compound, the pEC50 in experiment [3] (setting [9]) is 4.82.
For `COc1cc(NCc2ccc(/C=C/C(=O)Nc3ccccc3N)cc2)cc(OC)c1OC` [Cpd 106, N-(2-aminophenyl)-3-{4-[(3,4,5-trimethoxy-phenylamino)-methyl]-phenyl}-acrylamide], the inhibition in vivo at 20 mg/kg in experiment [1] was 80%. Further, in experiment [3] (setting [9]), the pEC50 is 6.00. For the same compound, the pIC50 in the experiment on HCT116 cells (setting [10]) was 5.70.
`Nc1ccccc1NC(=O)c1ccc(CSc2nc3ccccc3[nH]2)cc1` [Cpd 126, N-(2-Amino-phenyl)-4-(1H-benzimidazol-2-ylsulfanylmethyl)-benzamide]: in experiment [1], the inhibition in vivo at 40 mg/kg was found to be 62%. Moreover, the pEC50 in experiment [3] (setting [7]) was 6.00. In the experiment with HCT116 cells (setting [8]), this compound gave a pIC50 of 6.70.
Turning to `Nc1ccccc1NC(=O)c1ccc(Cn2cnc3ccccc3c2=O)cc1` [Cpd 154, N-(2-Amino-phenyl)-4-(4-oxo-4H-quinazolin-3-ylmethyl)-benzamide], in experiment [1], the inhibition in vivo at 20 mg/kg was determined as 23%. Moreover, the pIC50 in experiment [2] (Table 5E) is 6.52; in the experiment on HCT116 cells (setting [8]), 6.40. Besides, the pEC50 in experiment [3] (setting [7]) was greater than 6.00.
On to `Nc1ccccc1NC(=O)c1ccc(Cn2c(=O)[nH]c3ccccc3c2=O)cc1` [Cpd 157, N-(2-Amino-phenyl)-4-(2,4-dioxo-1,4-dihydro-2H-quinazolin-3-ylmethyl)-benzamide], for which the inhibition in vivo at 20 mg/kg in experiment [1] is 66%. In experiment [3] (setting [7]), the pEC50 is 6.00. In the experiment on HCT116 cells (setting [8]), the pIC50 was 6.22.
Turning to `COc1ccc(CCNc2ccc(C(=O)Nc3ccccc3N)cn2)cc1` [Cpd 168], the inhibition in vivo at 40 mg/kg in experiment [1] was 26%. Besides, in experiment [3] (setting [7]), the pEC50 was 5.70. The pIC50 in the experiment with HCT116 cells (setting [8]) was 6.10.
As for `Nc1ccccc1NC(=O)c1ccc(N2CC[C@H](Nc3cccnc3)C2)cc1` [compound 604, (S)-N-(2-aminophenyl)-4-(3-(pyridin-3-ylamino)pyrrolidin-1-yl)benzamide], the pIC50 is 7.22 on HDAC-1 and 6.10 with HCT116 cells (HCT-116, HCT116 cells). The pEC50 in experiment [4] was 5.10.
The like results for `Nc1ccccc1NC(=O)c1ccc(N2CC[C@@H](Nc3cccnc3)C2)cc1` [compound 605, (R)-N-(2-aminophenyl)-4-(3-(pyridin-3-ylamino)pyrrolidin-1-yl)benzamide] were, in that order, 6.52, 5.52 and 4.92.
The like results for `Nc1ccccc1NC(=O)c1ccc(N2CC[C@H](Oc3cccnc3)C2)cc1` [compound 606, (S)-N-(2-aminophenyl)-4-(3-(pyridin-3-yloxy)pyrrolidin-1-yl)benzamide] were, in that order, 6.40, 6.15 and 5.15.
For the compound `Nc1ccccc1NC(=O)c1ccc(N2CC[C@H](Nc3ccccc3)C2)cc1` [compound 608, (S)-N-(2-aminophenyl)-4-(3-(phenylamino)pyrrolidin-1-yl)benzamide], the pIC50 was 6.70 on HDAC-1 and 6.52 with HCT116 cells (HCT-116, HCT116 cells). In addition, the pEC50 in experiment [4] is 6.70.
Regarding `Nc1ccccc1NC(=O)c1ccc(N2CC[C@H](Oc3ccc(C(=O)O)cc3)C2)cc1` [compound 612, (S)-4-(1-(4-(2-aminophenylcarbamoyl)phenyl)pyrrolidin-3-yloxy)benzoic acid], the pIC50 is 6.09 on HDAC-1 and 4.41 in the experiment on HCT116 cells (HCT-116, HCT116 cells).
As for `COc1cc(O[C@H]2CCN(c3ccc(C(=O)Nc4ccccc4N)cc3)C2)cc(OC)c1OC` [compound 613, (S)-N-(2-aminophenyl)-4-(3-(3,4,5-trimethoxyphenoxy)pyrrolidin-1-yl)benzamide], the pIC50 is 7.05 at HDAC-1 and 6.52 in the experiment on HCT116 cells (HCT-116, HCT116 cells). In addition, the pEC50 in experiment [4] is 6.00.
For `Nc1ccccc1NC(=O)c1ccc(N2CC[C@H](Oc3ccc4c(c3)OCO4)C2)cc1` [compound 614, (S)-N-(2-aminophenyl)-4-(3-(benzo[d][1,3]dioxol-5-yloxy)pyrrolidin-1-yl)benzamide], in that order: 7.00, 5.10 and 6.00.
With `Nc1ccccc1NC(=O)c1ccc(N2CC[C@H](Oc3ccc(Oc4ccccc4)cc3)C2)cc1` [compound 615, (S)-N-(2-aminophenyl)-4-(3-(4-phenoxyphenoxy)pyrrolidin-1-yl)benzamide], the pIC50 at HDAC-1 was 5.86; in the experiment with HCT116 cells (HCT-116, HCT116 cells) it was 5.40.
Regarding `Nc1ccccc1NC(=O)c1ccc(N2CC[C@H](Oc3ccc([N+](=O)[O-])cc3)C2)cc1` [compound 616, (S)-N-(2-aminophenyl)-4-(3-(4-nitrophenoxy)pyrrolidin-1-yl)benzamide], the negative logarithm of the IC50 (pIC50) is 6.97 at HDAC-1 and 6.15 in the experiment with HCT116 cells (HCT-116, HCT116 cells).
For `Nc1ccccc1NC(=O)c1ccc(N2CC[C@H](Sc3ccccn3)C2)cc1` [compound 617, (S)-N-(2-aminophenyl)-4-(3-(pyridin-2-ylthio)pyrrolidin-1-yl)benzamide], the pIC50 on HDAC-1 was 6.64; in the experiment with HCT116 cells (HCT-116, HCT116 cells), 6.15. For the same compound, the pEC50 in experiment [4] is 5.70.
